Measurements from the NIST ThermoML archive (doi:10.1021/je501135p).
± gives the expanded uncertainty stated by the source.

Conditions: Liquid, Ebulliometric method (Recirculating still)

For `OC1CCCCC1` [cyclohexanol], the “vapor or sublimation pressure” value (433.38 K) was 99 ± 3 kPa.
For `O=C1CCCCC1` [cyclohexanone], the “vapor or sublimation pressure” value (428.01 K) was 99 ± 3 kPa.
In the case of `O=C1C=CCCC1` [2-cyclohexen-1-one], the “vapor or sublimation pressure” value (444.48 K) is reported as 99 ± 1 kPa and the “vapor or sublimation pressure” value (444.51 K) is reported as 99 ± 1 kPa.
